Article PMC11435065, “Inhibition of P-Glycoprotein Asymmetrically Alters the In Vivo Exposure Profile of SGC003F: A Novel Guanylate Cyclase Stimulator” (Pharmaceuticals, 2024)
Like-named read-outs stand apart in the source and are kept apart here.

Legend:
P-gp (human MDR1) = target: T1, P-gp (human MDR1) (Homo sapiens, UniProt P08183); experiment: Bidirectional transport across LLC-PK1-MDR1 monolayer cells with or without tariquidar; assay type: in vitro ADME; details: for efflux ratio at 2 h, 2 µM: human, read-out: ER value (efflux ratio)
T1 construct: expressed in transfected cells; host or cells: LLC-PK1 cells stably expressing human MDR1 (gift of Professor Qingcheng Mao, University of Washington)
T1 sequence (P08183 whole entry): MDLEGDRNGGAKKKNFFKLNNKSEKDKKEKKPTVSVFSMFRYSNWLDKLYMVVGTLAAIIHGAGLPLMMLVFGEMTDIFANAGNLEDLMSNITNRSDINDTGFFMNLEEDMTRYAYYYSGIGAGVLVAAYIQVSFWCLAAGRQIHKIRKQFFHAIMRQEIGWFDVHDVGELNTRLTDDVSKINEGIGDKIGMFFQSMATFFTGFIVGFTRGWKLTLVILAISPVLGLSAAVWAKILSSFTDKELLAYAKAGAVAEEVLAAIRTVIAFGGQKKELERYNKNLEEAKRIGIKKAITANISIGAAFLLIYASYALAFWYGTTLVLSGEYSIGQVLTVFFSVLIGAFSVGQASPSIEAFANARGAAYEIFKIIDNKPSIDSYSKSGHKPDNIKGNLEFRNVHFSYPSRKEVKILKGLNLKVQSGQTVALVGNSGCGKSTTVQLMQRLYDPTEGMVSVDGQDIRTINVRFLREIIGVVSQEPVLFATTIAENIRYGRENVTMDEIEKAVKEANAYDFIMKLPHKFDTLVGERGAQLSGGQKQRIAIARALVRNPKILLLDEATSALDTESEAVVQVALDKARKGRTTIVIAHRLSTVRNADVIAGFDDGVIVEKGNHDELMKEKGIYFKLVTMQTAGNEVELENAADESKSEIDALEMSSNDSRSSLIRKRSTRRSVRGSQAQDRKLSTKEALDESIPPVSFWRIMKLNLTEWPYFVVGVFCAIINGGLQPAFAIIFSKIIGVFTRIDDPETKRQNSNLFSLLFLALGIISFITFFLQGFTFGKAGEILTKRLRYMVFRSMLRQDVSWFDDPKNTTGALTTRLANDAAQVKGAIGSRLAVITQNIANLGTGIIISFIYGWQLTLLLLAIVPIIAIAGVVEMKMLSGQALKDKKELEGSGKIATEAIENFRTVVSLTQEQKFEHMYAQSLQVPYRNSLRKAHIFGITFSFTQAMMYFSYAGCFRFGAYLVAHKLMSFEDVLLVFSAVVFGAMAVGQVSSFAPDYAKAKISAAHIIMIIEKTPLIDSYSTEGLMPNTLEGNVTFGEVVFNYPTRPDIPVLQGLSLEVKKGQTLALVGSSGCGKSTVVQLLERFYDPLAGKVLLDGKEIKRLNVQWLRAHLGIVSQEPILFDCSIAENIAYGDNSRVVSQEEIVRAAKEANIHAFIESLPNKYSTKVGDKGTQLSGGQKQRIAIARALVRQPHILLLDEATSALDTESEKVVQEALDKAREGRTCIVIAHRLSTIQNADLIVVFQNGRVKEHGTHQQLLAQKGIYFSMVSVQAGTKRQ
Description: Cell lines: LLC-PK1 cells with stable-expressing human MDR1 and mock-transfected with empty vector (LLC-PK1-MOCK) were gifted by the lab of Professor Qingcheng Mao (University of Washington, Seattle, WA, USA). The culture medium of the LLC-PK1-MOCK and LLC-PK1-MDR1 cells was 1640 medium containing 10% FBS and 100 U/mL PS. The Caco-2 cells were purchased from ADCC. The Caco-2 cell culture medium was DMEM high-glucose medium (containing 10% FBS, 1% non-essential amino acid solution, 100 U/mL PS). Both cell lines were cultured at 37 °C in a cell incubator containing 5% CO2.
LLC-PK1-MDR1, LLC-PK1-MOCK, and Caco-2 cells were seeded in 24-well Transwell cell plates at optimized densities. The medium was changed every other day for the LLC-PK1 cells and every day for the Caco-2 cells. The LLC-PK1 cells were cultured continuously for 4–7 days, while the Caco-2 cells were cultured continuously for 28–35 days in preparation for transport experiments. Prior to the experiment, TEER (transepithelial electrical resistance) values were measured using a cell resistance meter. For electrical measurements, two electrodes were used, with one electrode placed in the upper compartment and the other in the lower compartment and the electrodes were separated by the cellular monolayer. The measurement procedure included measuring the blank resistance (Rblank) of the semipermeable membrane only (without cells) and measuring the resistance across the cell layer on the semipermeable membrane (Rtotal). TEER values were achieved by calculating as TEER = (Rtotal − Rblank) × Marea in the unit of Ω·cm^2. The monolayer integrity was guaranteed by determining the TEER before and after the bidirectional transport experiments. […]
The apparent permeability rate value (Papp) of the monolayer cells was calculated according to Equation (5) Papp = (dQ/dt)/(A × C0)(5) where dQ/dt is the transport rate (µmol·s^−1); A is the insert surface area (0.33 cm^2); C0 is the initial concentration of the compound (µM).
Efflux rate (ER) was calculated according to Equation (6):ER = Papp B-A/PappA-B(6)

[1] = In vitro metabolic stability in human liver microsomes; assay type: in vitro ADME; details: 1 µM, up to 60 min, NADPH or UDPGA
Procedure: In vitro incubation dependent on NADPH: SGC003F was added into rat and human liver microsomes diluted in PBS (100 mM, pH 7.3). NADPH was introduced into the system. The NADPH had been pre-equilibrated under the same conditions for 5 min to initiate the enzymatic reaction. The incubation mixture was meticulously prepared to achieve the following final concentrations: 1 µM for SGC003F, 0.5 mg/mL for the liver microsomal protein, and 1 mM for NADPH.
In vitro incubation dependent on UDPGA: rat and human liver microsomes diluted in PBS (100 mM, pH 7.3) were mixed with alamethicin and then placed on ice for 15 min before the addition of the working solution of SGC003F. After preincubation in a water bath at 37 °C for 5 min, UDPGA, which had been preincubated for 5 min was added to initiate the reaction. The final concentrations in the incubation system were as follows: 1 μM for SGC003F, 0.5 mg/mL for liver microsomal protein concentration, 5 mM for UDPGA, and 25 μg/mL for alamethicin.
Positive probe substrate assays were utilized to ensure normal activity of the incubation system. […] Finally, 60 μL supernatant was taken and diluted with 60 μL of 50% acetonitrile before being analyzed by LC-MS/MS.

P-gp substrate assessment (P-gp (human MDR1); LLC-PK1-MDR1 vs LLC-PK1-MOCK, with/without tariquidar): substrate for P-gp
efflux ratio at 2 h, 2 µM (P-gp (human MDR1); LLC-PK1, LLC-PK1-MDR1 cells, without tariquidar): 6.71
efflux ratio at 2 h, 2 µM (P-gp (human MDR1); LLC-PK1, with tariquidar 5 µM, LLC-PK1-MDR1 cells, with tariquidar 5 µM): 1.28
Metabolic stability (percentage of drug remaining over time) [1]: no significant metabolic elimination
SMILES: COC(=O)Nc1c(N)nc(-c2nn(Cc3sccc3F)c3ncc(F)cc23)nc1N [SGC003F]
